Measurements published in paper PMC6204216 (Archives of biochemistry and biophysics, 2018).
Where two headings read alike, the source gives them in different places.

Tests used:
AChE [1] = molecular target: T1, AChE (Homo sapiens, UniProt P22303); assay: Carbamoylation of AChE, qualitative observations; format: biochemical
Target sequence in this assay (P22303 32-614): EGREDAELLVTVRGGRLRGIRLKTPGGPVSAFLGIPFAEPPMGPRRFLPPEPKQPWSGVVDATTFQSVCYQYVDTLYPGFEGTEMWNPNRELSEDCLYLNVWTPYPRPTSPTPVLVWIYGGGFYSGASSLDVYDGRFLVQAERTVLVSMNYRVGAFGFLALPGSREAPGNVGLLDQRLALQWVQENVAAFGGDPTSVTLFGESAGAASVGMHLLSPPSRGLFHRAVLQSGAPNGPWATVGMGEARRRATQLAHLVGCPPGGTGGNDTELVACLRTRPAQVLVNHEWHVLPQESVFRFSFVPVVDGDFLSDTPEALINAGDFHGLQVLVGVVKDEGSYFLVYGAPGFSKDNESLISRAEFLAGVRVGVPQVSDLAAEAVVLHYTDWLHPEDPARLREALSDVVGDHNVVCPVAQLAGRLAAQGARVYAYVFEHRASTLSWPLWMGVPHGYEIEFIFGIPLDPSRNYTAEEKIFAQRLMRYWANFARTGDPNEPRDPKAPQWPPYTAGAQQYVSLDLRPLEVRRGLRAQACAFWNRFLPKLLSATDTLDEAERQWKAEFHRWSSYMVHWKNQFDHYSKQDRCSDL

[2] = Stability of aqueous solutions; format: physicochemical
AChE [3] = molecular target: T1, AChE; details: after carbamoylation of hAChE; cited from earlier work
Target sequence in this assay (P22303 32-617 isoform P22303-2 limits assumed): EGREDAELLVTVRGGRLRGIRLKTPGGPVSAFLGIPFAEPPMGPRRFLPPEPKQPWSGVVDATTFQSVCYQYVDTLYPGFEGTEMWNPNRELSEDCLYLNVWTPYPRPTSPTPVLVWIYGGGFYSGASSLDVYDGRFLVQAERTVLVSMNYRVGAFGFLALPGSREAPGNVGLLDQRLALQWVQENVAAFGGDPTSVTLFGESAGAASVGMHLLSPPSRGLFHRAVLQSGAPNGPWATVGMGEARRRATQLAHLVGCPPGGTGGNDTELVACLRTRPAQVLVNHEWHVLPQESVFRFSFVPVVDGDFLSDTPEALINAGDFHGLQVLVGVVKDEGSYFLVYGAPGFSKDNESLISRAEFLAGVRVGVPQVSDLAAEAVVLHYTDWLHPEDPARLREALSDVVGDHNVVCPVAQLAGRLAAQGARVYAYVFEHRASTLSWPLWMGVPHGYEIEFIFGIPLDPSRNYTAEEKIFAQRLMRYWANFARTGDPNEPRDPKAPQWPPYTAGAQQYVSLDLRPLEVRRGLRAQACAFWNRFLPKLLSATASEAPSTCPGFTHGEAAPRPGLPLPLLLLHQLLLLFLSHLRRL

AChE [4] = molecular target: T1, AChE; details: for k21 × 10^6 (decarbamoylation rate constant): 25 °C, absence of carbamate, mean ± SEM of n measurements
Target sequence in this assay (P22303 32-617 isoform P22303-2 limits assumed): as above

AChE [5] = molecular target: T1, AChE; format: biochemical
Target sequence in this assay (P22303 32-617 isoform P22303-2 limits assumed): as above

AChE [6] = molecular target: T1, AChE; assay: Solvent deuterium oxide kinetic isotope effect on decarbamoylation; format: biochemical; details: 25 °C, pH 7.0, mean ± SE
Target sequence in this assay (P22303 32-617 isoform P22303-2 limits assumed): as above

AChE in rat brain = details: in vivo, 37 °C; cited from earlier work
AChE [7] = molecular target: T1, AChE; details: cited from earlier work
Target sequence in this assay (P22303 32-614): as the sequence (P22303 32-614) above

AChE [8] = molecular target: T1, AChE; assay: Literature carbamoylation and decarbamoylation of AChE; format: biochemical
Target sequence in this assay (P22303 32-614): as above

[9] = k12 data fitted to Eq. 1a, 25 °C

CCN(C)C(=O)Cl [EMCC, N-ethyl–N-methylcarbamoyl chloride]
Carbamoylation of AChE (AChE [1]): poorly | Stability of aqueous solutions [2]: very unstable

C[C@@H]1CN(CCCCCCCCNC(=O)Oc2ccc3c(c2)[C@]2(C)CCN(C)[C@@H]2N3C)C[C@H](C)O1 [MF268]
k21 (AChE [3]): too small to be measured

CNC(=O)Oc1cccc([N+](C)(C)C)c1 [Monomethyl neostigmine]
k21 × 10^6 (decarbamoylation rate constant) (AChE [4]; second protocol): 12300 ± 400 min^−1 | R (fraction of total enzyme carbamoylated at reaction initiation) (AChE [4]; after spin column, Figure 3 fit): 0.90 | k21 (AChE [4]; second protocol, Figure 3a fit, 0.25 mM acetylthiocholine): 12.9 ± 0.02 × 10^−3 min^−1 | k21 (AChE [5]; first protocol, Figure 2, paper calls estimates below 0.01 min^−1 unreliable): 0.013 min⁻¹ | k2/KD (AChE [5]; fitted to Eq. 1a): 16 ± 2 min^−1μM^−1 | Kd (AChE [5]; [9]): 3.2 ± 0.4 µM | k2 (carbamoylation) (AChE [5]; [9]): 51 ± 2 min⁻¹ | k21 ^H2O / k21^D2O (deuterium oxide kinetic isotope effect on k21) (AChE [6]; listed as N-monomethyl HTMA): 2.8 ± 0.2 | k21 ^H2O / k21^D2O (deuterium oxide kinetic isotope effect on k21) (AChE [6]; listed as N-monomethyl neostigmine): 2.8

CCN(CC)C(=O)F [N,N-diethyl F, N,N-diethylcarbamoyl fluoride]
Recovery half time of AChE (AChE in rat brain): 182 h | k21 × 10^6 (decarbamoylation rate constant) (AChE [4]; second protocol): 7 ± 1 min^−1 | Formation of N,N-diethylcarbamoylated AChE (AChE [7]): failed to detect

CCN(CC)C(=O)Oc1cccc([N+](C)(C)C)c1 [N,N-diethyl HTMA]
k21 × 10^6 (decarbamoylation rate constant) (AChE [4]; second protocol): 16 ± 5 min^−1 | k21 ^H2O / k21^D2O (deuterium oxide kinetic isotope effect on k21) (AChE [6]): 1.1 ± 0.2

CCN(CC)C(=O)OCC[N+](C)(C)C [N,N-diethylcarbamoyl choline, reference compound]
Formation of N,N-diethylcarbamoylated AChE (AChE [7]): failed to detect

CCN(C)C(=O)Oc1cccc([N+](C)(C)C)c1 [N-ethyl-N-methyl HTMA]
k21 × 10^6 (decarbamoylation rate constant) (AChE [4]; second protocol): 150 ± 20 min^−1 | k21 ^H2O / k21^D2O (deuterium oxide kinetic isotope effect on k21) (AChE [6]): 1.8 ± 0.2

C[N+](C)(C)CCOC(N)=O [carbamoyl choline]
k21 larger than that for N-monomethylcarbamoylated AChE (AChE [8]): 10 fold

CNC(=O)Oc1cccc2ccccc12 [carbaryl, reference compound]
k21 × 10^6 (decarbamoylation rate constant) (AChE [4]; second protocol): 11300 ± 600 min^−1

CN(C)C(=O)Oc1cccc([N+](C)(C)C)c1 [neostigmine, reference compound]
k21 × 10^6 (decarbamoylation rate constant) (AChE [4]; second protocol): 3600 ± 300 min^−1 | k21 ^H2O / k21^D2O (deuterium oxide kinetic isotope effect on k21) (AChE [6]): 2.4 ± 0.2
